Data: PubChem BioAssay AID248 (DTP/NCI, 2004)
Values joined by “and” are separate entries in the source; they are usually repeats but may differ in a detail not shown here. Identical values can stand only once. Toxic doses and inconclusive results are not listed. Cut-off read from the data, not from the text of the source: active = T/C of 150% or more; inactive = T/C below 125%.

Tested on: L1210 leukemia ip in BDF1 mice, survival T/C
Assay: NCI In Vivo Anticancer Drug Screen. Data for tumor model L1210 Leukemia (intraperitoneal) in B6D2F1 (BDF1) mice
Settings: endpoint: mean survival time, higher = longer survival
In short: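 Ratio derived from survival: compound-dosed mice over vehicle-dosed mice, all bearing a transplantable tumor.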

[1] = dose: 12.5 mg/kg/injection, schedule: Q01DX009 (ip), vehicle: saline with Tween-80
[2] = dose: 25.0 mg/kg/injection, schedule: Q01DX009 (ip), vehicle: saline with Tween-80
[3] = dose: 25.0 mg/kg/injection, schedule: Q04DX003 (ip), vehicle: saline with Tween-80
[4] = dose: 50.0 mg/kg/injection, schedule: Q01DX009 (ip), vehicle: saline with Tween-80
[5] = dose: 100.0 mg/kg/injection, schedule: Q04DX003 (ip), vehicle: saline with Tween-80
[6] = dose: 100.0 mg/kg/injection, schedule: Q01DX009 (ip), vehicle: saline with Tween-80
[7] = dose: 200.0 mg/kg/injection, schedule: Q01DX009 (ip), vehicle: saline with Tween-80
[8] = dose: 200.0 mg/kg/injection, schedule: Q04DX003 (ip), vehicle: saline with Tween-80
[9] = dose: 100.0 mg/kg/injection, schedule: Q04DX002 (ip), vehicle: saline with Tween-80
[10] = dose: 200.0 mg/kg/injection, schedule: Q04DX002 (ip), vehicle: saline with Tween-80
[11] = dose: 50.0 mg/kg/injection, schedule: Q04DX002 (ip), vehicle: saline with Tween-80
[12] = dose: 100.0 mg/kg/injection, schedule: Q04DX002 (ip), vehicle: Klucel (hydroxypropylcellulose) (HPC)
[13] = dose: 200.0 mg/kg/injection, schedule: Q04DX002 (ip), vehicle: Klucel (hydroxypropylcellulose) (HPC)
[14] = dose: 400.0 mg/kg/injection, schedule: Q04DX002 (ip), vehicle: Klucel (hydroxypropylcellulose) (HPC)
[15] = dose: 100.0 mg/kg/injection, schedule: Q01DX001 (ip), vehicle: saline
[16] = dose: 200.0 mg/kg/injection, schedule: Q01DX001 (ip), vehicle: saline
[17] = dose: 400.0 mg/kg/injection, schedule: Q01DX001 (ip), vehicle: saline
[18] = dose: 400.0 mg/kg/injection, schedule: Q04DX003 (ip), vehicle: saline with Tween-80

Measured: T/C

N#CC1(C#N)C2C=CC(C3CCC=C32)C1(C#N)C#N (centres undefined)
inactive: [1] 109 % of control | [2] 96 % of control | [3] 104 % of control | [4] 111 % of control | dose: 50.0 mg/kg/injection, schedule: Q04DX003 (ip), vehicle: saline with Tween-80 95 % of control | [5] 93 % of control

CCC1(CC2CCCN(C)C2)c2ccccc2Sc2ccccc21 (centres undefined)
inactive: dose: 8.0 mg/kg/injection, schedule: Q01DX015 (ip), vehicle: carboxymethylcellulose (CMC) 105 % of control | dose: 16.0 mg/kg/injection, schedule: Q01DX015 (ip), vehicle: carboxymethylcellulose (CMC) 94 % of control | dose: 32.0 mg/kg/injection, schedule: Q01DX015 (ip), vehicle: carboxymethylcellulose (CMC) 91 % of control | dose: 64.0 mg/kg/injection, schedule: Q01DX015 (ip), vehicle: carboxymethylcellulose (CMC) 103 % of control and 110 % of control

CCCCN(C)CC#N
inactive: dose: 6.25 mg/kg/injection, schedule: Q01DX009 (ip), vehicle: saline with Tween-80 102 % of control | [1] 96 % of control | dose: 12.5 mg/kg/injection, schedule: Q04DX003 (ip), vehicle: saline with Tween-80 94 % of control | [2] 104 % of control | [3] 94 % of control

COc1cc(Cl)ccc1C
inactive: [4] 98 % of control | [6] 93 % of control | [5] 93 % of control | [7] 90 % of control | [8] 89 % of control

CCCCCCCCCCCCCCP(I)(N(C)C)(N(C)C)N(C)C
inactive: dose: 0.78 mg/kg/injection, schedule: Q04DX002 (ip), vehicle: saline 107 % of control | dose: 1.56 mg/kg/injection, schedule: Q04DX002 (ip), vehicle: saline 113 % of control | dose: 3.13 mg/kg/injection, schedule: Q04DX002 (ip), vehicle: saline 113 % of control

C[N+](C)(C)CCC[N+](C)(C)C
inactive: dose: 100.0 mg/kg/injection, schedule: Q01DX009 (ip), vehicle: saline 108 % of control | dose: 100.0 mg/kg/injection, schedule: Q04DX003 (ip), vehicle: saline 107 % of control | dose: 200.0 mg/kg/injection, schedule: Q01DX009 (ip), vehicle: saline 106 % of control | dose: 200.0 mg/kg/injection, schedule: Q04DX003 (ip), vehicle: saline 92 % of control | dose: 400.0 mg/kg/injection, schedule: Q01DX009 (ip), vehicle: saline 106 % of control | dose: 400.0 mg/kg/injection, schedule: Q04DX003 (ip), vehicle: saline 100 % of control

CCOC(=O)OCc1ccccc1
inactive: [9] 94 % of control | [10] 109 % of control | dose: 400.0 mg/kg/injection, schedule: Q04DX002 (ip), vehicle: saline with Tween-80 102 % of control

CN(C)C(=O)Nc1cccc(OC(=O)NC(C)(C)C)c1
inactive: [6] 93 % of control | [7] 87 % of control | dose: 400.0 mg/kg/injection, schedule: Q01DX009 (ip), vehicle: saline with Tween-80 94 % of control

CCCCS(=O)(=O)N1CCCCC1C (centres undefined)
inactive: dose: 25.0 mg/kg/injection, schedule: Q04DX002 (ip), vehicle: saline with Tween-80 96 % of control | [11] 96 % of control | [9] 86 % of control

O=C1c2ccccc2-c2c3c(cc4ccnc1c24)OCO3
inactive: dose: 100.0 mg/kg/injection, schedule: Q01DX001 (ip), vehicle: Klucel (hydroxypropylcellulose) (HPC) 93 % of control | dose: 200.0 mg/kg/injection, schedule: Q01DX001 (ip), vehicle: Klucel (hydroxypropylcellulose) (HPC) 96 % of control | dose: 400.0 mg/kg/injection, schedule: Q01DX001 (ip), vehicle: Klucel (hydroxypropylcellulose) (HPC) 100 % of control

CCCCOc1ccc(OCCCC)cc1
inactive: [12] 105 % of control | [13] 97 % of control | [14] 101 % of control

CC(=O)OC(C(C)=O)c1ccccc1 (centres undefined)
inactive: dose: 50.0 mg/kg/injection, schedule: Q01DX001 (ip), vehicle: saline 101 % of control | [15] 101 % of control | [16] 98 % of control | [17] 101 % of control

O=C(SCCNC(=O)N1CCCCC1)Sc1ccccc1
inactive: [5] 105 % of control | [8] 101 % of control | [18] 114 % of control

O=NN1CCCCCC1C(=O)O (centres undefined)
inactive: [15] 108 % of control | [16] 102 % of control

O=C1c2ccccc2C(=O)N1CCCN1C(=O)c2ccccc2C1=O
inactive: dose: 100.0 mg/kg/injection, schedule: Q01DX001 (ip), vehicle: saline with Tween-80 111 % of control | dose: 100.0 mg/kg/injection, schedule: Q04DX002 (ip), vehicle: gum acacia 104 % of control | dose: 200.0 mg/kg/injection, schedule: Q01DX001 (ip), vehicle: saline with Tween-80 102 % of control | dose: 200.0 mg/kg/injection, schedule: Q04DX002 (ip), vehicle: gum acacia 96 % of control | dose: 400.0 mg/kg/injection, schedule: Q01DX001 (ip), vehicle: saline with Tween-80 100 % of control | dose: 400.0 mg/kg/injection, schedule: Q04DX002 (ip), vehicle: gum acacia 93 % of control

CCCOC(=O)c1cncc(C(=O)OCCC)c1
inactive: [5] 94 % of control | [8] 105 % of control | [18] 100 % of control

Nc1c2ccccc2cc2cccc[n+]12
inactive: dose: 9.38 mg/kg/injection, schedule: Q01DX001 (ip), vehicle: other 101 % of control and 100 % of control | dose: 18.75 mg/kg/injection, schedule: Q01DX001 (ip), vehicle: other 97 % of control and 99 % of control

CCOC(=O)CC(CC[N+](=O)[O-])C(=O)OCC (centres undefined)
inactive: [11] 108 % of control | [15] 109 % of control | [9] 89 % of control | [16] 110 % of control | [10] 96 % of control | [17] 97 % of control

CCCCCCC(=O)/C=C/c1ccc(Cl)c(Cl)c1
inactive: dose: 100.0 mg/kg/injection, schedule: Q01DX009 (ip), vehicle: acetone 92 % of control | dose: 100.0 mg/kg/injection, schedule: Q04DX003 (ip), vehicle: acetone 101 % of control | dose: 200.0 mg/kg/injection, schedule: Q01DX009 (ip), vehicle: acetone 92 % of control | dose: 200.0 mg/kg/injection, schedule: Q04DX003 (ip), vehicle: acetone 93 % of control | dose: 400.0 mg/kg/injection, schedule: Q04DX003 (ip), vehicle: acetone 98 % of control

CC(=O)OCC(C)(C)N
inactive: dose: 100.0 mg/kg/injection, schedule: Q04DX002 (ip), vehicle: saline 89 % of control | dose: 200.0 mg/kg/injection, schedule: Q04DX002 (ip), vehicle: saline 110 % of control | dose: 400.0 mg/kg/injection, schedule: Q04DX002 (ip), vehicle: saline 95 % of control

COc1cc(C(=O)NN(C)C)cc(OC)c1OC
inactive: dose: 100.0 mg/kg/injection, schedule: Q01DX001 (ip), vehicle: carboxymethylcellulose (CMC) 97 % of control | dose: 200.0 mg/kg/injection, schedule: Q01DX001 (ip), vehicle: carboxymethylcellulose (CMC) 101 % of control | dose: 400.0 mg/kg/injection, schedule: Q01DX001 (ip), vehicle: carboxymethylcellulose (CMC) 101 % of control

CC(OC(=O)c1ccc([N+](=O)[O-])cc1)C(C)(C)C (centres undefined)
inactive: [12] 109 % of control | [13] 123 % of control | [14] 113 % of control
